Assay results as given in paper PMC4661406, “Uncovering the Mechanism of Aggregation of Human Transthyretin” (The Journal of Biological Chemistry, 2015).
Where a SMILES comes first, the peptide text is derived from it. [ ]: non-standard residue; d: D form. NMeE = CN[C@@H](CCC(=O)O)C(=O)O; NMeA = CN[C@@H](C)C(=O)O

Key:
[1] = biological target: T1, monomeric variant MTTR (Homo sapiens, UniProt P02766, F107M/L130M); assay: Binding of inhibitors to MTTR (unbound fraction by HPLC-MS); conditions: apparent affinity for all MTTR species in solution (binding to aggregated species not excluded), 0.5 mg/ml MTTR with increasing combined R4PAm and R4PTm, 37 °C, 18 h, 10 mM sodium acetate pH 7.4, 100 mM KCl, 10 mM EDTA, one-site specific binding (GraphPad Prism 6), read-out: apparent binding constant (KD)
T1 construct: made in house; host or cells: Escherichia coli Rosetta(DE3) pLysS, pET24(+) vector
Method: The soluble unbound fraction of inhibitors after incubation with the monomeric variant MTTR ([40]) was quantified by HPLC-MS. Samples were made as follows. Soluble TTR at a fixed concentration of 0.5 mg/ml was incubated at 37 °C for 18 h in 10 mM sodium acetate (pH 7.4), 100 mM KCl, 10 mM EDTA with increasing quantities of combined R4PAm and R4PTm. The aggregated fraction was removed by 0.22-μm filtration. The protein fraction containing soluble TTR and inhibitor-bound complexes was then removed by acid precipitation with 1% acetic acid and consecutive ultracentrifugation at 90,000 rpm for 30 min. Neither 0.22-μm filtration nor acid precipitation affected the concentration of the unbound soluble fraction of the peptide inhibitors (data not shown). The unbound soluble fraction of inhibitors was subjected to size exclusion HPLC followed by mass spectrometry. […]
(§1) FIGURE 6. […] A, midpoint temperatures of the thermal unfolding transition (Tm) of wild-type TTR at different conditions were determined by differential scanning calorimetry. […] The unbound fraction of inhibitors was analyzed by HPLC-MS. […] TTR aggregation (TTR agg.) was measured by absorbance at 400 nm with the initial protein amount normalized to 100%. mAU, milli-absorbance units; N.A., not applicable. […]

[2] = Fibril formation of TTR peptides in isolation (TEM); type: physicochemical; conditions: PBS pH 7.4, 37 °C, no shaking; TEM after 7 days (methods: incubated 2 weeks); peptide concentration 0.5-17 mM
Method: Following dissolution, samples were filtered through a 0.2-μm filter and incubated at 37 °C with no shaking for 2 weeks.
TEM was performed to visualize the fibril formation of TTR proteins and peptides. 5 μl of the sample was spotted onto freshly glow-discharged, carbon-coated EM grids (Ted Pella, Redding, CA). After 3 min of incubation, grids were rinsed three times with 5 μl of distilled water and then stained with 2% uranyl acetate for 2 min. Grids were examined with a T12 Quick CryoEM and CryoET (FEI) transmission electron microscope at an accelerating voltage of 120 kV. Digital images were recorded using a Gatan 2,048 × 2,048 charge-coupled device camera.
FIGURE 2. β-Strand F as an aggregation-driving segment in TTR suitable for aggregation inhibitor design. […] Histograms show percentage of TTR aggregation using WT TTR to normalize to 100%. The aggregation was measured by absorbance of the samples at 400 nm after 4 days of incubation at 37 °C and pH 4.3 with no shaking. […]
FIGURE 3. β-Strand H as a second aggregation-driving segment suitable as a target for aggregation inhibitor design. A, residue solvent-accessible surface area (ASA; Å^2) of TTR was calculated by Areaimol using the structure of WT TTR in three different conformations: tetramer (blue), dimer (black), and monomer (green). […]

[3] = tested on: WT TTR; assay: Differential scanning calorimetry of WT TTR with T4 and/or inhibitors; type: binding, human; conditions: versus WT TTR alone (no T4 before addition); 5:1 molar ratio to TTR monomer; 3.5 M guanidinium chloride, pH 4.3
Method: Data were taken with a DSC-II differential scanning calorimeter (Calorimetry Sciences Corp., Lindon, UT). The midpoint temperatures of the thermal unfolding transition (Tm) of wild type and mutants were determined. Thermal denaturation of TTR was irreversible under our conditions ([1], [38]), and absolute thermodynamic parameters were not determined. […] The experiments were performed in 3.5 M guanidinium hydrochloride to depress melting below 100 °C; this guanidinium concentration also solubilized thyroxine. Protein samples were thawed on ice and filtered, and the concentration was measured by UV-visible absorption. Protein samples were diluted to 1 mg/ml in 3.5 M guanidinium chloride, 100 mM sodium acetate (pH 4.3), 100 mM potassium chloride, 1 mM EDTA. A volume of 700 μl of each protein sample was prepared in a 1.5-ml microcentrifuge tube and degassed for 5 min under vacuum while stirring. The reference cell contained only buffer components. […]
as §1

[4] = tested on: transthyretin amyloidosis; conditions: background statement, refs 16-18 cited in the next sentence; cited from earlier work
Description: Currently, there is no cure for transthyretin amyloidosis, and the treatment for familial cases of ATTR is liver transplantation. […] Several other therapeutics are currently in clinical trials, including other tetramer stabilizers such as diflunisal and RNAi therapies that cause a decrease in the production of TTR protein ([16][–][18]). Additional approaches are needed to prevent ATTR, and here we explore the use of peptide inhibitors that block aggregation of TTR.

Molecule | Kd [1] | fibril formation in isolation [2] | other results
CC(C)[C@H](NC(=O)[C@@H](NC(=O)[C@H](C)N(C)C(=O)[C@@H](NC(=O)[C@@H](NC(=O)[C@H](CO)NC(=O)[C@H](Cc1ccc(O)cc1)NC(=O)[C@H](CO)NC(=O)[C@H](Cc1ccc(O)cc1)NC(=O)[C@@H]1CCCN1C(=O)[C@H](CCCNC(=N)N)NC(=O)[C@H](CCCNC(=N)N)NC(=O)[C@H](CCCNC(=N)N)NC(=O)[C@@H](N)CCCNC(=N)N)[C@@H](C)O)[C@@H](C)O)C(C)C)C(=O)N[C@H](C(=O)N[C@@H](CC(N)=O)C(=O)O)[C@@H](C)O [R4PTm] (H-RRRRPYSYSTT[NMeA]VVTN-OH) | 19.3 ± 6.7 µM |  | 
TAVVTN [6-residue TTR segment 119-124 from strand H] |  | form fibrils in solution by self-aggregation | 
CC(C)[C@H](NC(=O)[C@@H](NC(=O)[C@H](CCC(=O)O)N(C)C(=O)[C@H](C)NC(=O)[C@H](Cc1c[nH]cn1)NC(=O)[C@H](CCC(=O)O)NC(=O)[C@H](Cc1c[nH]cn1)NC(=O)[C@H](Cc1ccccc1)NC(=O)[C@@H]1CCCN1C(=O)[C@H](CCCNC(=N)N)NC(=O)[C@H](CCCNC(=N)N)NC(=O)[C@H](CCCNC(=N)N)NC(=O)[C@@H](N)CCCNC(=N)N)C(C)C)C(=O)N[C@@H](Cc1ccccc1)C(=O)N[C@H](C(=O)N[C@@H](C)C(=O)O)[C@@H](C)O [R4PAm] (H-RRRRPFHEHA[NMeE]VVFTA-OH) | 17.9 ± 6.1 µM |  | 
NC(Cc1cc(I)c(Oc2cc(I)c(O)c(I)c2)c(I)c1)C(=O)O (stereo not drawn) [T4, thyroxine] |  |  | increase in Tm of WT TTR on addition [3]: 10.8 °C
AEVVFT [6-residue TTR segment 91-96 from strand F] |  | form fibrils in solution by self-aggregation | 
O=C(O)c1ccc2nc(-c3cc(Cl)cc(Cl)c3)oc2c1 [Tafamidis] |  |  | disease progression [4]: delays progression of the disease
